Results on 9 molecules are retold here after US7670631B2, “Method for the prevention of malaria infection of humans by hepatocyte growth factor antagonists” (ALFAMA—Investigação e Desenvolvimento de Produtos …, priority 2003, dated 2010).

For one series, the system named is ISIF/HGF secretion. As to the kind of experiment: ISIF/HGF secretion by HepG2 cells after wounding (infection susceptibility assay). In kind it is cell-based. The settings on record: HepG2 cells treated, washed, incubated with P. berghei sporozoites to generate conditioned medium. As to the method: HepG2 cells were treated with Brefeldin-A (BFA), an inhibitor of protein transport to the Golgi vesicles that blocks constitutive secretion in eukaryotic cells. BFA treated cells, and untreated control cells, were then washed and incubated with P. berghei sporozoites to generate conditioned medium. […] The effect of BFA was dose-dependent. Supernatants of mechanically wounded HepG2 cells were collected after various time periods of incubation. ISIF/HGF levels, as determined by the infection susceptibility assay (FIG. 2c) and western blot analysis, (FIG. 2d) increased with time. The ISIF activity was abolished by the addition of neutralizing anti-HGF antibodies (FIG. 2c).

Series [1] has as its system P. berghei sporozoites. Description: Genistein effect on hepatic infection with Plasmodium berghei sporozoites in vitro (EEF count in HepG2 cells). Particulars: Genistein at 25 μM, 24 h with P. berghei sporozoites. In kind it is cell-based. As to the method: HepG2 cells were maintained in DMEM 10% FCS, 1 mM glutamine. P. berghei sporozoites were obtained from dissection of infected Anopheles stephensi mosquito salivary glands. P. berghei sporozoites ([…]) were added to monolayers of 2×10^5 HepG2 cells (in the presence or not of Genistein) for 24 h before fixation and staining with anti-EEF mAb (2E6), followed by anti-mouse IgG-FITC antibodies. Infection was quantified by counting the number of EEFs per coverslip.

The next series has as its system HGF receptor. Description: ISIF activity of medium conditioned by primary hepatocytes. In kind it is cell-based. Here is the method:
(§1) Supernatant were generated from cultures containing the mouse hepatoma cells Hepa1-6 and P. yoelii sporozoites (mH/Py conditioned media). To detect ISIF activity, fresh hepatoma cells were incubated with mH/Py conditioned media for different periods of time. Cells were then washed and incubated with P. yoelii sporozoites. Infection was examined 24 h later by staining the exo-erythrocytic forms of the parasite (EEFs). As controls, we used Hepa1-6 cells pre-incubated for identical periods of time with fresh medium before addition of P. yoelii sporozoites. Pre-treatment of hepatocytes with mH/Py conditioned medium increases the level of infection (FIG. 1a). […] Since sporozoites are obtained by dissection of infected mosquito salivary glands, we also tested conditioned media that were obtained from cultures containing hepatoma cells and material of salivary glands from uninfected mosquitoes. Medium conditioned in this way was ineffective (FIG. 1b).
Primary hepatocytes were obtained by liver perfusion. […] Cells that have been traversed by sporozoites can be detected using a cell-impermeant fluorescent tracer macromolecule that only penetrates into wounded cells. P. yoelii sporozoites were incubated with Hepa1-6 cells in the presence of fluorescent-labelled dextran before staining for HGF. […]

The target of a further series is T1, MET (Homo sapiens, UniProt P08581).
T1 construct: host or cells: MLP-29 cells, GTL-16 gastric carcinoma cells and NIH3T3 fibroblasts are named in the same paragraph
The settings on record: cited from earlier work.

For series [2] the following is noted: in vivo; cited from earlier work.
In another series the test system is Plasmodium berghei. Particulars: cited from earlier work.
The subject of series [3] is P. berghei sporozoites. Description: Infection susceptibility (ISIF) assay: HepG2 cells pre-incubated with growth factors or conditioned medium plus antibodies before P. berghei sporozoites. In kind it is cell-based, Plasmodium berghei. Particulars: HepG2 cells pre-incubated before addition of P. berghei sporozoites. Here is the method: as §1
To test whether ISIF activity was mediated by known growth factor, two well-characterized growth factors known to be released after injury were tested: basic fibroblast growth factor (bFGF) and hepatocyte growth factor (HGF). HepG2 cells were pre-incubated with human HGF or bFGF before addition of P. berghei sporozoites. As positive and negative controls, cells were incubated with hH/Pb conditioned medium or fresh medium, respectively. […]

T1 sequence (P08581 25-1390): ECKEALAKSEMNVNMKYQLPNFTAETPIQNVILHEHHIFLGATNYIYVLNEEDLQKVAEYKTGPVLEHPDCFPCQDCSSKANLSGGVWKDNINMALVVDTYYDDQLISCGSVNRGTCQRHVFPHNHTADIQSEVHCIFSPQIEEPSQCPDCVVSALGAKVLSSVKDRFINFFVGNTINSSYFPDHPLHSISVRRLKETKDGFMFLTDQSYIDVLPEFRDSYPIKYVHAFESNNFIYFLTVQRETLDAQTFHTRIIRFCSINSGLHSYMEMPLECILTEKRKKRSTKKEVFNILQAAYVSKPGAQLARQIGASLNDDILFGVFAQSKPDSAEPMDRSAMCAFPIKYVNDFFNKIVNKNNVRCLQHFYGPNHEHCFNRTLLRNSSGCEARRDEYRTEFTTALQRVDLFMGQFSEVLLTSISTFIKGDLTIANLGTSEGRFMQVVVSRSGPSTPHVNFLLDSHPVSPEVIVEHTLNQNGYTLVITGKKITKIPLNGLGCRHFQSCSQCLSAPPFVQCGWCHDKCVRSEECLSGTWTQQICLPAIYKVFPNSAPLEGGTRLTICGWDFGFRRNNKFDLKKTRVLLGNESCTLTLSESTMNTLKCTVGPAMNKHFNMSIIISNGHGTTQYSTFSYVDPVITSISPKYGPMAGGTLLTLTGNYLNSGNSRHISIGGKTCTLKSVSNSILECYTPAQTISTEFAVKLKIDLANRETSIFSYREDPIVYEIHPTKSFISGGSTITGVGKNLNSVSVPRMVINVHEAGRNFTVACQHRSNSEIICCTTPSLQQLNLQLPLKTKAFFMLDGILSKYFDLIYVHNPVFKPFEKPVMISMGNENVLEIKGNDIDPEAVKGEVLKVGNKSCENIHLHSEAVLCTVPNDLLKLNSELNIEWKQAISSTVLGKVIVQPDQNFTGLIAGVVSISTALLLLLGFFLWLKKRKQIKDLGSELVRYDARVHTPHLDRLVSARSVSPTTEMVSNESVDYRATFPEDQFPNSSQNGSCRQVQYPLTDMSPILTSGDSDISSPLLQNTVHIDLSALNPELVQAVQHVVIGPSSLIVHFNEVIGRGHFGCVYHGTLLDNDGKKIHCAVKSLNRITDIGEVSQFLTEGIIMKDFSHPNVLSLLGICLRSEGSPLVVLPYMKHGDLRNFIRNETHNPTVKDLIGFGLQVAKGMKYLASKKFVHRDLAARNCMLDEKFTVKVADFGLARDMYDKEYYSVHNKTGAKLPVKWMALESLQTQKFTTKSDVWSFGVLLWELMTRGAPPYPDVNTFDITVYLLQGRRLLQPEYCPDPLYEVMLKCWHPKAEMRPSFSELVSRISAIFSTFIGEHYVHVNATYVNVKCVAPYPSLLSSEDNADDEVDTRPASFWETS

Regarding `C[C@H]1CCC/C=C/[C@@H]2C[C@H](O)C[C@H]2[C@H](O)/C=C/C(=O)O1` [BFA, Brefeldin-A], the ISIF/HGF secretion entry in the series with ISIF/HGF secretion is given as “inhibits ISIF/HGF secretion”.
Consider `O=c1c(-c2ccc(O)cc2)coc2cc(O)cc(O)c12` [Genistein, genistein], for which the “reduction in infection (number of EEFs per coverslip)” value in the series with P. berghei sporozoites [1] is “approximately 75%”.
As for `COC(=O)[C@@]1(O)C[C@H]2O[C@]1(C)n1c3ccccc3c3c4c(c5c6ccccc6n2c5c31)C(=O)NC4` [K252a], the ISIF activity result in the series on HGF receptor was “abolished ISIF activity”. The “concentration inhibiting Met mediated signals” value on MET is on record as “nanomolar concentrations”.
Take `OC(c1cc(C(F)(F)F)nc2c(C(F)(F)F)cccc12)C1CCCCN1` (stereo not shown) [Mefloquine, mefloquine]: in series [2], the elimination half life entry is “two to three”.
For the molecule `COc1cc(NC(C)CCCN)c2ncccc2c1` (stereo not shown) [Primaquine, primaquine], the half life entry in series [2] is “very short”.
On to `C[C@@H]1C[C@H]2O[C@@H]2/C=C\C=C\C(=O)Cc2c(Cl)c(O)cc(O)c2C(=O)O1` [radicicol], for which the “activity against Plasmodium berghei in mice” value in the series on Plasmodium berghei was “moderately active”.
As for `COc1cc(C)c2c(Oc3cccc(C(F)(F)F)c3)c(OC)cc(NC(C)CCCN)c2n1` (stereo not shown) [tafenoquine], the terminal half life entry in series [2] is reported as “about 14 days”.
For “HGF: hepatocyte growth factor, ligand of the receptor protein tyrosine kinase Met”, the “effect on infection of pre-incubation of HepG2 cells with growth factor” value with P. berghei sporozoites [3] is “increased infection to a greater extent than the hH/Pb conditioned medium”.
Take bFGF: basic fibroblast growth factor: the “effect on infection of pre-incubation of HepG2 cells with growth factor” value in the series with P. berghei sporozoites [3] is on record as “ineffective”.
